Among the data in EP1013768A1, “Mutant epoxide hydrolases” (priority 1998, dated 2000) are E-value values, retold here.

Holding throughout (format): biochemical
In experiment [1] the test system is epoxide hydrolase from Agrobacterium radiobacter AD1, Tyr215Phe mutant. Description: Stereoselective hydrolysis (kinetic resolution) of styrene oxides with Tyr215Phe mutant. Particulars: substrate 5 mM, Tris buffer 50 mM pH9, 30°C, 10% DMSO for meta- and para-chlorostyrene oxide, chiral GLC. How it is done:
Site directed mutagenesis was done as described by Kunkel (Proc. Natl. Acad. Sci. U.S.A., 82, 488-492 (1985)) with uracil-containing single stranded plasmid pEH20 as template (Rink et al.). Tyr^215 was mutated to Phe with the primer 5'-[…]-3' (mutated codon underlined). In order to confirm the mutation, the whole gene was sequenced as described in Rink et al.
(§1) A screw-cap bottle containing 30 ml Tris buffer^1 (50 mM pH9) was incubated in a shaking waterbath at 30°C. Styrene oxides (SO) as indicated in table 3 were added to a final concentration of 5 mM. The reaction was started by the addition of the a purified enzyme solution of the Tyr215Phe mutant of the epoxide hydrolase from Agrobacterium radiobacter AD1. The kinetic resolution was monitored by periodically taking 1 ml samples (with a 1 ml syringe) from the closed screw-cap bottle. The samples were extracted with diethylether containing 20 mM mesitylene as an internal standard. Prior to analysis by chiral GLC the water was removed from the sample by passing it through a short column containing MgSO4. The enantiomeric excess (%ee) and the yield of the epoxides was determined with a Hewlett-Packard 5890 gas chromatograph equipped with a FID-detector, using a Chiraldex G-TA capillary column, of 50 m lenght and 0.25 mm inside diameter. The data from the chiral GLC are as follows: • styrene oxide, tr(S)=12.4 min and tr(R)=14.8 min at 110°C; • meta-chlorostyrene oxide, tr(S)=20.2 min and tr(R)= 31.1 min at 120°C; • para-chlorostyrene oxide, tr(S)=40.7 min and tr(R)= 43.0 min at 100°C. ^1 In case of meta-chlorostyrene oxide and para-chlorostyrene oxide the buffer also contained 10% DMSO

Experiment [2] concerns epoxide hydrolase from Agrobacterium radiobacter AD1, wild type, SEQ ID No. 1. Description: Stereoselective hydrolysis (kinetic resolution) of styrene oxides, comparative experiment with wild type enzyme. Particulars: substrate 5 mM, Tris buffer 50 mM pH9, 30°C, 10% DMSO for meta- and para-chlorostyrene oxide, chiral GLC. As to the method: as §1
Example III was repeated using the corresponding wild type epoxide hydrolase for Agrobacterium radiobacter AD1.

In experiment [3] the test system is epoxide hydrolase from Agrobacterium radiobacter AD1, Tyr152Phe mutant. In words: Stereoselective hydrolysis (kinetic resolution) of racemic styrene oxide with Tyr152Phe mutant. The settings on record: as Example III (5 mM, Tris buffer 50 mM pH9, 30°C).

SMILES strings stand for the structures.

Consider `O=[N+]([O-])c1ccc(C2CO2)cc1` (racemic) [P-NO2-SO], for which the E-value in experiment [1] is on record as > 200; in experiment [2], 100.

For the compound `c1ccc(C2CO2)cc1` (racemic) [SO, styrene oxide], the values for the E-value in experiment [1], in experiment [3] and in experiment [2] were 30, ≥ 40 and 16, respectively.

Consider `Clc1cccc(C2CO2)c1` (stereo not drawn) [M-Cl-SO, meta-chlorostyrene oxide], for which the values for the E-value in experiment [1] and in experiment [2] were 13 and 6.5, respectively.

Consider `Clc1ccc(C2CO2)cc1` (stereo not drawn) [P-Cl-SO, para-chlorostyrene oxide], for which the values for the E-value in experiment [1] and in experiment [2] were 130 and 32, respectively.
